The source of these data is US8445503B2, “Inhibitors of polo-like kinase” (Elan Pharmaceuticals, Inc., priority 2009, dated 2013).

pIC50: −log10 of the molar value.

What all share (type): biochemical
For assay [1], the target named is GST-PLK1 (Homo sapiens, UniProt P53350). The experiment in a line: PLK TR-FRET peptide assay, PLK1. The note with it: read-out: Plk1 IC50. On the technique in general: In TR-FRET formats the signal depends on donor and acceptor labels being close together.
In assay [2] the target is T1, GST-PLK3 (Homo sapiens, UniProt Q9H4B4).
T1 construct: purchased CarnaBio
The experiment in a line: PLK TR-FRET peptide assay, PLK3. The note with it: PLK TR-FRET peptide assay, GST-PLK3; read-out: Plk3 IC50.

In assay [3] the target is T2, GST-PLK2 (Homo sapiens, UniProt Q9NYY3).
T2 construct: purchased CarnaBio
As to the kind of experiment: PLK TR-FRET peptide assay, PLK2. The conditions noted are these: for pIC50: PLK TR-FRET peptide assay, GST-PLK2, read-out: Plk2 IC50; for PLK2 activity relative to the opposite enantiomer / other isomer: comparison of resolved enantiomers, used to assign absolute configuration.

T1 sequence (Q9H4B4 whole entry): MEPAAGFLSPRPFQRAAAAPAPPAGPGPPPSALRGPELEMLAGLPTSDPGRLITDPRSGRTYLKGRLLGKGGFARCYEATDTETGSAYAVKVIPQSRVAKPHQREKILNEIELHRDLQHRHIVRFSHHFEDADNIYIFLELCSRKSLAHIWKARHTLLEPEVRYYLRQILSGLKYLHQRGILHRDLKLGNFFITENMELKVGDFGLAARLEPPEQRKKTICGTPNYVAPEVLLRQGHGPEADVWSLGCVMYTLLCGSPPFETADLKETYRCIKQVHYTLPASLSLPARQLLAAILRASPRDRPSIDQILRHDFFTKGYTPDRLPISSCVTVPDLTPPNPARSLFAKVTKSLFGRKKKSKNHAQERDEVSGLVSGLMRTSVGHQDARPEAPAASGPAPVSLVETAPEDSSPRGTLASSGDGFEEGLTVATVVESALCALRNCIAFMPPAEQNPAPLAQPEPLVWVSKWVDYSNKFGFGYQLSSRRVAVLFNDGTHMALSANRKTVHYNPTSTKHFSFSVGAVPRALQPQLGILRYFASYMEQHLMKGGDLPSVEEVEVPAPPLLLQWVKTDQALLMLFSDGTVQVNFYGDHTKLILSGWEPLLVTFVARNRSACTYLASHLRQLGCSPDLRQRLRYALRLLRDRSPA
Chain of GST-PLK1 (P53350 whole entry): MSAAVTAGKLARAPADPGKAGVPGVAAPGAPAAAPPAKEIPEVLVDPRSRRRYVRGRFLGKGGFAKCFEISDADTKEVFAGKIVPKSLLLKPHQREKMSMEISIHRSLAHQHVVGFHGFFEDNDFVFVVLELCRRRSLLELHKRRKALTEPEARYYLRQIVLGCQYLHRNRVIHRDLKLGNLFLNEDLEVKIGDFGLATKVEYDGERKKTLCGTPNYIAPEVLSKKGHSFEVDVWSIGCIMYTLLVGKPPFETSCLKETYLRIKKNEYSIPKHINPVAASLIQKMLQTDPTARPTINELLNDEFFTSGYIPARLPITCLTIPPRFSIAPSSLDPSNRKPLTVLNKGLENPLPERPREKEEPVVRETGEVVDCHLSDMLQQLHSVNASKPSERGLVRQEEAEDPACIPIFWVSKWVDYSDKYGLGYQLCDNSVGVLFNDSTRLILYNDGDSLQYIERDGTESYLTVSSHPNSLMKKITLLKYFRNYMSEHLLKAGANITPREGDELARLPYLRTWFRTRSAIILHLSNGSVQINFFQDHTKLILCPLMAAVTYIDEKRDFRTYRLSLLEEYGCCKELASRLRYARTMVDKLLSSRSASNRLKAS
T2 sequence (Q9NYY3 whole entry): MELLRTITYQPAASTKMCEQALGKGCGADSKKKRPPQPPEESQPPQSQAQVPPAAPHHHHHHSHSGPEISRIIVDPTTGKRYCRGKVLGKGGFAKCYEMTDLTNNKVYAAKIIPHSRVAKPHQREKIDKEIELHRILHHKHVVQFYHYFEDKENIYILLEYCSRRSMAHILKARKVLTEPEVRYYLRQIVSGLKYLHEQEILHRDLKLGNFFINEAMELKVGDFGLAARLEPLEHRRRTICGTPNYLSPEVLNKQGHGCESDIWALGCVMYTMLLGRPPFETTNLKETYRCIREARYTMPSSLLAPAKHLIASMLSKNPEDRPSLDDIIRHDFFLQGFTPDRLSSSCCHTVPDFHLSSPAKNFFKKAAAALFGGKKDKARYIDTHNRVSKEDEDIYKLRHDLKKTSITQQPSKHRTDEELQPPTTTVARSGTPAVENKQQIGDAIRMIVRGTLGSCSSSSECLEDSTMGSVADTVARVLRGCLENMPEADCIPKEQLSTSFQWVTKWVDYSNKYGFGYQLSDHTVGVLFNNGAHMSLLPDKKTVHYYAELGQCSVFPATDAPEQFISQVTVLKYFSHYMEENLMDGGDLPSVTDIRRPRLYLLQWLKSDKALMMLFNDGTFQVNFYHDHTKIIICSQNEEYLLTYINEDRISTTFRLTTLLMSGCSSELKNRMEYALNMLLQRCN

With `CC[C@@H]1C(=O)N(C)c2cnc(-n3ccnc3-c3ccc(F)cc3)nc2N1c1ccn(C)n1` [Example 407, (R)-7-ethyl-2-(2-(4-fluorophenyl)-1H-imidazol-1-yl)-5-methyl-8-(1-methyl-1H-pyrazol-3-yl)-7,8-dihydropteridin-6(5H)-one], the pIC50 (commonly −log10 of the IC50, conventionally taken in molar units) was 5.00 to 6.00 in assay [1], 5.00 to 6.00 in assay [2] and over 6.00 in assay [3]. The “PLK2 activity relative to the opposite enantiomer / other isomer” value in assay [3] is “more active compound”.
As to `CC[C@@H]1C(=O)N(C)c2cnc(-n3cnc(C(N)=O)c3)nc2N1C1CCCC1` [Example 69, (R)-1-(8-cyclopentyl-7-ethyl-5-methyl-6-oxo-5,6,7,8-tetrahydropteridin-2-yl)-1H-imidazole-4-carboxamide], the pIC50 was over 6.00 in assay [1], 5.00 to 6.00 in assay [2] and over 6.00 in assay [3].
As for `CC[C@@H]1C(=O)N(C)c2cnc(-n3ccnc3-c3cnccn3)nc2N1C1CCOCC1` [Example 140, (R)-7-ethyl-5-methyl-2-(2-(pyrazin-2-yl)-1H-imidazol-1-yl)-8-(tetrahydro-2H-pyran-4-yl)-7,8-dihydropteridin-6(5H)-one], the results for the pIC50 in assay [1], in assay [2] and in assay [3] were 5.00 to 6.00, under 4.30 and over 6.00, respectively.
On the same counts, the results for `CCC1C(=O)N(C)c2cnc(-c3cn[nH]c3-c3nccs3)nc2N1c1cnn(CC2CC2)c1` (centres unmarked) [Example 400, 8-(1-(cyclopropylmethyl)-1H-pyrazol-4-yl)-7-ethyl-5-methyl-2-(5-(thiazol-2-yl)-1H-pyrazol-4-yl)-7,8-dihydropteridin-6(5H)-one] are 5.00 to 6.00, 5.00 to 6.00 and over 6.00.
On to `CC[C@@]12COCCN1c1nc(-n3ccnc3-c3ccc(F)cn3)ncc1N(C)C2=O` [Example 380, (S)-6a-ethyl-2-(2-(5-fluoropyridin-2-yl)-1H-imidazol-1-yl)-5-methyl-6a,7,9,10-tetrahydro-[1,4]oxazino[3,4-h]pteridin-6(5H)-one], for which the values for the pIC50 in assay [1], in assay [2] and in assay [3] were under 4.30, under 4.30 and over 6.00, respectively. Moreover, the “PLK2 activity relative to the opposite enantiomer / other isomer” value in assay [3] was “more active compound”.
As for `CCC1C(=O)Nc2cnc(-n3ccnc3-c3ccccc3)nc2N1NC(=O)OC(C)(C)C` (centres unmarked) [Example 274, tert-Butyl 7-ethyl-6-oxo-2-(2-phenyl-1H-imidazol-1-yl)-6,7-dihydropteridin-8(5H)-ylcarbamate], the pIC50 in assay [1], in assay [2] and in assay [3] was under 4.30 each time.
Regarding `CC[C@@H]1C(=O)N(C)c2cnc(-c3n[nH]cc3-c3ccccc3)nc2N1C1CCCC1` [Example 245, (R)-8-cyclopentyl-7-ethyl-5-methyl-2-(4-phenyl-1H-pyrazol-3-yl)-7,8-dihydropteridin-6(5H)-one], the pIC50 in assay [1] was over 6.00; in assay [2], 5.00 to 6.00; in assay [3] it was over 6.00.
As to `CCC12COCCN1c1nc(-n3ccnc3-c3ccccc3)ncc1N(C)C2=O` (racemic) [Example 317, 6a-ethyl-5-methyl-2-(2-phenyl-1H-imidazol-1-yl)-6a,7,9,10-tetrahydro-[1,4]oxazino[3,4-h]pteridin-6(5H)-one], the pIC50 in assay [1] was 4.30 to 5.00; in assay [2], 5.00 to 6.00; in assay [3], over 6.00.
For `CC[C@@H]1C(=O)N(C)c2cnc(-n3ccnc3-c3cccnc3)nc2N1C(C)C` [Example 154, (R)-7-ethyl-8-isopropyl-5-methyl-2-(2-(pyridin-3-yl)-1H-imidazol-1-yl)-7,8-dihydropteridin-6(5H)-one], the pIC50 is 5.00 to 6.00 in assay [1], 4.30 to 5.00 in assay [2] and over 6.00 in assay [3].
`CC[C@@H]1C(=O)N(C)c2cnc(-n3ccnc3-c3ccncc3)nc2N1C1CCC1` [Example 81, (R)-8-cyclobutyl-7-ethyl-5-methyl-2-(2-(pyridin-4-yl)-1H-imidazol-1-yl)-7,8-dihydropteridin-6(5H)-one]: the figures for the pIC50 in assay [1], in assay [2] and in assay [3] were 5.00 to 6.00, 4.30 to 5.00 and over 6.00, respectively.
On the same counts, the results for `CC[C@@]12CCCN1c1nc(-n3ccnc3-c3cccnc3)ncc1N(C)C2=O` [Example 137, (S)-6a-ethyl-5-methyl-2-(2-(pyridin-3-yl)-1H-imidazol-1-yl)-6a,7,8,9-tetrahydropyrrolo[2,1-h]pteridin-6(5H)-one] are under 4.30, under 4.30 and 5.00 to 6.00.
On the same counts, the results for `CC[C@@H]1C(=O)N(C)c2cnc(-n3ccc(C(N)=O)n3)nc2N1C1CCCC1` [Example 63, (R)-1-(8-cyclopentyl-7-ethyl-5-methyl-6-oxo-5,6,7,8-tetrahydropteridin-2-yl)-1H-pyrazole-3-carboxamide] are 5.00 to 6.00, 5.00 to 6.00 and over 6.00.
The corresponding values for `CC[C@@H]1C(=O)N(C)c2cnc(-c3cn[nH]c3-c3ccccc3)nc2N1C1CCCC1` [Example 134, (R)-8-cyclopentyl-7-ethyl-5-methyl-2-(5-phenyl-1H-pyrazol-4-yl)-7,8-dihydropteridin-6(5H)-one] are over 6.00, over 6.00 and over 6.00.
`CC[C@@H]1C(=O)N(C)c2cnc(-n3cc(C(=O)N(C)C)cn3)nc2N1C1CCCC1` [Example 39, (R)-1-(8-cyclopentyl-7-ethyl-5-methyl-6-oxo-5,6,7,8-tetrahydropteridin-2-yl)-N,N-dimethyl-1H-pyrazole-4-carboxamide]: the pIC50 in assay [1] was 5.00 to 6.00; in assay [2] it was 4.30 to 5.00; in assay [3], 5.00 to 6.00.
Take `CC[C@@H]1C(=O)N(C)c2cnc(-n3cnc(C(=O)NC)c3)nc2N1C1CCCC1` [Example 46, (R)-1-(8-cyclopentyl-7-ethyl-5-methyl-6-oxo-5,6,7,8-tetrahydropteridin-2-yl)-N-methyl-1H-imidazole-4-carboxamide]: the pIC50 in assay [1] was over 6.00; in assay [2] it was 5.00 to 6.00; in assay [3], over 6.00.
Turning to `CCC1C(=O)N(C)c2cnc(-n3ccnc3-c3ccccc3)nc2N1N1CCCC1` (centres unmarked) [Example 280, 7-ethyl-5-methyl-2-(2-phenyl-1H-imidazol-1-yl)-8-(pyrrolidin-1-yl)-7,8-dihydropteridin-6(5H)-one], the pIC50 in assay [1] was over 6.00; in assay [2], 4.30 to 5.00; in assay [3] it was over 6.00.
Consider `CCC1C(=O)N(C)c2cnc(-n3ccnc3-c3ccc(F)cc3)nc2N1c1cnn(COCC[Si](C)(C)C)c1` (centres unmarked) [Example 342, 7-ethyl-2-(2-(4-fluorophenyl)-1H-imidazol-1-yl)-5-methyl-8-(1-((2-(trimethylsilyl)ethoxy)methyl)-1H-pyrazol-4-yl)-7,8-dihydropteridin-6(5H)-one], for which the pIC50 in assay [1] is 4.30 to 5.00; in assay [2], 5.00 to 6.00; in assay [3] it was over 6.00.
Regarding `CC[C@@H]1C(=O)N(C)c2cnc(-n3cnc(C(=O)N4CCOCC4)c3)nc2N1C1CCCC1` [Example 45, (R)-8-cyclopentyl-7-ethyl-5-methyl-2-(4-(morpholine-4-carbonyl)-1H-imidazol-1-yl)-7,8-dihydropteridin-6(5H)-one], the pIC50 in assay [1] was 5.00 to 6.00; in assay [2] it was 4.30 to 5.00; in assay [3], over 6.00.
